Data as given in US10251892B2, “Bicyclic heterocycles as FGFR4 inhibitors” (Incyte Corporation, priority 2015, dated 2019).

Biological target: FGFR3 enzyme (Homo sapiens (Human), UniProt P22607)
Experiment: FGFR Enzymatic Assay (peptide phosphorylation, FRET), FGFR3
Type: biochemical
Details: IC50 ratio showing FGFR3 selectivity; pre-incubated for 4 hours
Method: The inhibitor potency of the exemplified compounds was measured in an enzyme assay that measures peptide phosphorylation using FRET measurements to detect product formation. Inhibitors were serially diluted in DMSO and a volume of 0.5 μL was transferred to the wells of a 384-well plate.
GraphPad prism3 was used to analyze the data.

Sequence of FGFR3 enzyme (P22607 23-806): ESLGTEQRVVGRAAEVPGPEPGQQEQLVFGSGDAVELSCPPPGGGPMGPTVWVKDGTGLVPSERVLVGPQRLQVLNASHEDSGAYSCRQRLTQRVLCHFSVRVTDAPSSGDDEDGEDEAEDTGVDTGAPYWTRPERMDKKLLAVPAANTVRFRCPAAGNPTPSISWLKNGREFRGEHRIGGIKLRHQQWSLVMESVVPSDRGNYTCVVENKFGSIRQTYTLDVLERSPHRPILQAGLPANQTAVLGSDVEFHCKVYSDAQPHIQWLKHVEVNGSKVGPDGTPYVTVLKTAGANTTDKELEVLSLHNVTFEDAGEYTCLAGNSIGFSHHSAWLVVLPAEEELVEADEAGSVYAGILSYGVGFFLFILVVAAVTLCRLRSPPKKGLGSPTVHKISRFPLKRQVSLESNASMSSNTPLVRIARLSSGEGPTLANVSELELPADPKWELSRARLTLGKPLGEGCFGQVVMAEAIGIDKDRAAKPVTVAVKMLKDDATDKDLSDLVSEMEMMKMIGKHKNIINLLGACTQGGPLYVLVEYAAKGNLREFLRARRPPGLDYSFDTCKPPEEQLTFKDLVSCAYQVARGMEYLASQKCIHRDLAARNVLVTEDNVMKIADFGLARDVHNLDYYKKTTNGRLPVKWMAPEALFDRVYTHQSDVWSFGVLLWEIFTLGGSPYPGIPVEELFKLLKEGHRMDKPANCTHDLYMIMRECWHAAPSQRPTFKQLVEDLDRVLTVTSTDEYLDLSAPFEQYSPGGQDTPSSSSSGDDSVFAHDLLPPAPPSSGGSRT

| SMILES | FGFR1/FGFR3 | FGFR4/FGFR3 |
| --- | --- | --- |
| COc1cc(OC)c(F)c(N2Cc3cnc(-c4ccccc4)cc3C3(CC3)C2=O)c1F [Example 17, 2′-(2,6-difluoro-3,5-dimethoxyphenyl)-6′-phenyl-1′H-spiro[cyclopropane-1,4′-[2,7]naphthyridin]-3′(2′H)-one] | >10 | – |
| CNC(=O)c1ccc(-c2cc3c(cn2)CN(c2c(F)c(OC)cc(OC)c2F)C(=O)C32CC2)cn1 [Example 18, 5-(2′-(2,6-difluoro-3,5-dimethoxyphenyl)-3′-oxo-2′,3′-dihydro-1′H-spiro[cyclopropane-1,4′-[2,7]naphthyridine]-6′-yl)-N-methylpicolinamide] | >5 | – |
| CNC(=O)c1ccc(-c2cc3c(cn2)CN(c2c(F)c(OC)cc(OC)c2F)C(=O)C32CC2)cc1 [Example 19, 4-(2′-(2,6-difluoro-3,5-dimethoxyphenyl)-3′-oxo-2′,3′-dihydro-1′H-spiro[cyclopropane-1,4′-[2,7]naphthyridine]-6′-yl)-N-methylbenzamide] | >5 | – |
| COc1cc(OC)c(F)c(N2Cc3cnc(-c4ccc(C#N)nc4)cc3C3(CC3)C2=O)c1F [Example 20, 5-(2′-(2,6-difluoro-3,5-dimethoxyphenyl)-3′-oxo-2′,3′-dihydro-1′H-spiro[cyclopropane-1,4′-[2,7]naphthyridine]-6′-yl)picolinonitrile] | >5 | – |
| COc1cc(OC)c(F)c(N2Cc3cnc(-c4cn(C)nc4C)cc3C3(CC3)C2=O)c1F [Example 21, 2′-(2,6-difluoro-3,5-dimethoxyphenyl)-6′-(1,3-dimethyl-1H-pyrazol-4-yl)-1′,2′-dihydro-3′H-spiro[cyclopropane-1,4′-[2,7]naphthyridin]-3′-one] | >5 | – |
| CCN1C(=O)N(c2c(F)c(OC)cc(OC)c2F)Cc2cnc(-c3ccccc3)cc21 [Example 22, 3-(2,6-difluoro-3,5-dimethoxyphenyl)-1-ethyl-7-phenyl-3,4-dihydropyrido[4,3-d]pyrimidin-2(1H)-one] | >5 | – |
| CCN1C(=O)N(c2c(F)c(OC)cc(OC)c2F)Cc2cnc(-c3cccnc3)cc21 [Example 23, 3-(2,6-difluoro-3,5-dimethoxyphenyl)-1-ethyl-7-(pyridin-3-yl)-3,4-dihydropyrido[4,3-d]pyrimidin-2(1H)-one] | >5 | – |
| CCN1C(=O)N(c2c(F)c(OC)cc(OC)c2F)Cc2cnc(-c3ccc(CN4CC[C@H](C#N)C4)cc3)cc21 [Example 25, (S)-1-(4-(3-(2,6-difluoro-3,5-dimethoxyphenyl)-1-ethyl-2-oxo-1,2,3,4-tetrahydropyrido[4,3-d]pyrimidin-7-yl)benzyl)pyrrolidine-3-carbonitrile] | >5 | >5 |
| CCN1C(=O)N(c2c(F)c(OC)cc(OC)c2F)Cc2cnc(-c3ccc(C(C)(C)C#N)nc3)cc21 [Example 26, 2-(5-(3-(2,6-difluoro-3,5-dimethoxyphenyl)-1-ethyl-2-oxo-1,2,3,4-tetrahydropyrido[4,3-d]pyrimidin-7-yl)pyridin-2-yl)-2-methylpropanenitrile] | >5 | >5 |
| CCN1C(=O)N(c2c(F)c(OC)cc(OC)c2F)Cc2cnc(-c3ccc(C4(C#N)CCC4)nc3)cc21 [Example 27, 1-(5-(3-(2,6-difluoro-3,5-dimethoxyphenyl)-1-ethyl-2-oxo-1,2,3,4-tetrahydropyrido[4,3-d]pyrimidin-7-yl)pyridin-2-yl)cyclobutanecarbonitrile] | >10 | >10 |
| COc1cc(OC)c(F)c(N2Cc3cnc(-c4cn(C)nc4C)cc3N(CC3CC3)C2=O)c1F [Example 29, 1-(cyclopropylmethyl)-3-(2,6-difluoro-3,5-dimethoxyphenyl)-7-(1,3-dimethyl-1H-pyrazol-4-yl)-3,4-dihydropyrido[4,3-d]pyrimidin-2(1H)-one] | >1 | >5 |
| CCCN1C(=O)N(c2c(F)c(OC)cc(OC)c2F)Cc2cnc(-c3cn(C)nc3C)cc21 [Example 30, 3-(2,6-difluoro-3,5-dimethoxyphenyl)-7-(1,3-dimethyl-1H-pyrazol-4-yl)-1-propyl-3,4-dihydropyrido[4,3-d]pyrimidin-2(1H)-one] | >1 | >5 |
| COc1cc(OC)c(F)c(N2Cc3cnc(-c4cn(C)nc4C)cc3N(Cc3cc(C)on3)C2=O)c1F [Example 31, 3-(2,6-difluoro-3,5-dimethoxyphenyl)-7-(1,3-dimethyl-1H-pyrazol-4-yl)-1-((5-methylisoxazol-3-yl)methyl)-3,4-dihydropyrido[4,3-d]pyrimidin-2(1H)-one] | >5 | >10 |
| COc1cc(OC)c(F)c(N2Cc3cnc(-c4cn(C)nc4C)cc3N(C3CCCC3)C2=O)c1F [Example 32, 1-cyclopentyl-3-(2,6-difluoro-3,5-dimethoxyphenyl)-7-(1,3-dimethyl-1H-pyrazol-4-yl)-3,4-dihydropyrido[4,3-d]pyrimidin-2(1H)-one] | >1 | >5 |
| COc1cc(OC)c(F)c(N2Cc3cnc(-c4cn(C)nc4C)cc3N(C3CCOC3)C2=O)c1F (centres unmarked) [Example 33, 3-(2,6-difluoro-3,5-dimethoxyphenyl)-7-(1,3-dimethyl-1H-pyrazol-4-yl)-1-(tetrahydrofuran-3-yl)-3,4-dihydropyrido[4,3-d]pyrimidin-2(1H)-one] | >5 | >5 |
| COc1cc(OC)c(F)c(N2Cc3cnc(-c4cn(C)nc4C)cc3N(Cc3ccc(F)cc3)C2=O)c1F [Example 34, 3-(2,6-difluoro-3,5-dimethoxyphenyl)-7-(1,3-dimethyl-1H-pyrazol-4-yl)-1-(4-fluorobenzyl)-3,4-dihydropyrido[4,3-d]pyrimidin-2(1H)-one] | >5 | >10 |
| COc1cc(OC)c(F)c(N2Cc3cnc(-c4cn(C)nc4C)cc3N(Cc3cc(C)no3)C2=O)c1F [Example 35, 3-(2,6-difluoro-3,5-dimethoxyphenyl)-7-(1,3-dimethyl-1H-pyrazol-4-yl)-1-((3-methylisoxazol-5-yl)methyl)-3,4-dihydropyrido[4,3-d]pyrimidin-2(1H)-one] | >5 | >10 |
| COc1cc(OC)c(F)c(N2Cc3cnc(-c4cn(C)nc4C)cc3N(CC3CCOCC3)C2=O)c1F [Example 37, 3-(2,6-difluoro-3,5-dimethoxyphenyl)-7-(1,3-dimethyl-1H-pyrazol-4-yl)-1-((tetrahydro-2H-pyran-4-yl)methyl)-3,4-dihydropyrido[4,3-d]pyrimidin-2(1H)-one] | >1 | >10 |
| COc1cc(OC)c(F)c(N2Cc3cnc(-c4cn(C)nc4C)cc3N(Cc3ccc4c(c3)OCCO4)C2=O)c1F [Example 38, 3-(2,6-difluoro-3,5-dimethoxyphenyl)-1-((2,3-dihydrobenzo[b][1,4]dioxin-6-yl)methyl)-7-(1,3-dimethyl-1H-pyrazol-4-yl)-3,4-dihydropyrido[4,3-d]pyrimidin-2(1H)-one] | >5 | >5 |
| CCn1cc(CN2C(=O)N(c3c(F)c(OC)cc(OC)c3F)Cc3cnc(-c4cn(C)nc4C)cc32)cn1 [Example 39, 3-(2,6-difluoro-3,5-dimethoxyphenyl)-7-(1,3-dimethyl-1H-pyrazol-4-yl)-1-((1-ethyl-1H-pyrazol-4-yl)methyl)-3,4-dihydropyrido[4,3-d]pyrimidin-2(1H)-one] | >10 | >10 |
| COc1cc(OC)c(F)c(N2Cc3cnc(-c4cn(C)nc4C)cc3N(c3ccc(F)cc3)C2=O)c1F [Example 40, 3-(2,6-difluoro-3,5-dimethoxyphenyl)-7-(1,3-dimethyl-1H-pyrazol-4-yl)-1-(4-fluorophenyl)-3,4-dihydropyrido[4,3-d]pyrimidin-2(1H)-one] | >10 | >10 |
| COc1cc(OC)c(F)c(N2Cc3cnc(-c4cn(C)nc4C)cc3N(c3ccc4ncsc4c3)C2=O)c1F [Example 41, 1-(1,3-benzothiazol-6-yl)-3-(2,6-difluoro-3,5-dimethoxyphenyl)-7-(1,3-dimethyl-1H-pyrazol-4-yl)-3,4-dihydropyrido[4,3-d]pyrimidin-2(1H)-one] | >1 | >5 |
| COc1cc(OC)c(F)c(N2Cc3cnc(-c4cn(C)nc4C)cc3N(C3CCN(C(C)=O)CC3)C2=O)c1F [Example 43, 1-(1-acetylpiperidin-4-yl)-3-(2,6-difluoro-3,5-dimethoxyphenyl)-7-(1,3-dimethyl-1H-pyrazol-4-yl)-3,4-dihydropyrido[4,3-d]pyrimidin-2(1H)-one] | >10 | >5 |
| COc1cc(OC)c(F)c(N2Cc3cnc(-c4cn(C)nc4C)cc3N(c3ccc(C#N)cc3)C2=O)c1F [Example 44, 4-(3-(2,6-difluoro-3,5-dimethoxyphenyl)-7-(1,3-dimethyl-1H-pyrazol-4-yl)-2-oxo-3,4-dihydropyrido[4,3-d]pyrimidin-1(2H)-yl)benzonitrile] | >10 | >10 |
| COc1cc(OC)c(F)c(N2Cc3cnc(-c4cn(C)nc4C)cc3N(c3ccncn3)C2=O)c1F [Example 45, 3-(2,6-difluoro-3,5-dimethoxyphenyl)-7-(1,3-dimethyl-1H-pyrazol-4-yl)-1-pyrimidin-4-yl-3,4-dihydropyrido[4,3-d]pyrimidin-2(1H)-one] | >10 | >10 |
| COc1cc(OC)c(F)c(N2Cc3cnc(-c4cn(C)nc4C)cc3N(Cc3nnc(C)o3)C2=O)c1F [Example 46, 3-(2,6-difluoro-3,5-dimethoxyphenyl)-7-(1,3-dimethyl-1H-pyrazol-4-yl)-1-[(5-methyl-1,3,4-oxadiazol-2-yl)methyl]-3,4-dihydropyrido[4,3-d]pyrimidin-2(1H)-one] | >10 | >10 |
| COc1cc(OC)c(F)c(N2Cc3cnc(-c4cn(C)nc4C)cc3N(Cc3cnn(C)c3C)C2=O)c1F [Example 48, 3-(2,6-difluoro-3,5-dimethoxyphenyl)-7-(1,3-dimethyl-1H-pyrazol-4-yl)-1-[(1,5-dimethyl-1H-pyrazol-4-yl)methyl]-3,4-dihydropyrido[4,3-d]pyrimidin-2(1H)-one] | >10 | >10 |
